Patent publication US8802700B2 (Vertex Pharmaceuticals Incorporated, priority 2010, dated 2014)

biological target: T1, ΔF508-CFTR (Homo sapiens, UniProt P13569, DEL508-508); assay: Membrane potential optical assay (FRET voltage-sensor dyes, VIPR), identification of potentiator compounds; format: cell-based; conditions: Table 3; assay not given
T1 construct: expressed in transfected cells
How it was run: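 Potentiator screen measured membrane potential via FRET between CC2-DMPE donor and DiSBAC2(3), read on VIPR II. Compound went in with the first addition of chloride-free gluconate bath; cells were ΔF508-CFTR-expressing NIH3T3 mouse fibroblasts, temperature-corrected at 27 °C for 24 h.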

T1 sequence (P13569 with tags, fused parts or gaps DEL508-508): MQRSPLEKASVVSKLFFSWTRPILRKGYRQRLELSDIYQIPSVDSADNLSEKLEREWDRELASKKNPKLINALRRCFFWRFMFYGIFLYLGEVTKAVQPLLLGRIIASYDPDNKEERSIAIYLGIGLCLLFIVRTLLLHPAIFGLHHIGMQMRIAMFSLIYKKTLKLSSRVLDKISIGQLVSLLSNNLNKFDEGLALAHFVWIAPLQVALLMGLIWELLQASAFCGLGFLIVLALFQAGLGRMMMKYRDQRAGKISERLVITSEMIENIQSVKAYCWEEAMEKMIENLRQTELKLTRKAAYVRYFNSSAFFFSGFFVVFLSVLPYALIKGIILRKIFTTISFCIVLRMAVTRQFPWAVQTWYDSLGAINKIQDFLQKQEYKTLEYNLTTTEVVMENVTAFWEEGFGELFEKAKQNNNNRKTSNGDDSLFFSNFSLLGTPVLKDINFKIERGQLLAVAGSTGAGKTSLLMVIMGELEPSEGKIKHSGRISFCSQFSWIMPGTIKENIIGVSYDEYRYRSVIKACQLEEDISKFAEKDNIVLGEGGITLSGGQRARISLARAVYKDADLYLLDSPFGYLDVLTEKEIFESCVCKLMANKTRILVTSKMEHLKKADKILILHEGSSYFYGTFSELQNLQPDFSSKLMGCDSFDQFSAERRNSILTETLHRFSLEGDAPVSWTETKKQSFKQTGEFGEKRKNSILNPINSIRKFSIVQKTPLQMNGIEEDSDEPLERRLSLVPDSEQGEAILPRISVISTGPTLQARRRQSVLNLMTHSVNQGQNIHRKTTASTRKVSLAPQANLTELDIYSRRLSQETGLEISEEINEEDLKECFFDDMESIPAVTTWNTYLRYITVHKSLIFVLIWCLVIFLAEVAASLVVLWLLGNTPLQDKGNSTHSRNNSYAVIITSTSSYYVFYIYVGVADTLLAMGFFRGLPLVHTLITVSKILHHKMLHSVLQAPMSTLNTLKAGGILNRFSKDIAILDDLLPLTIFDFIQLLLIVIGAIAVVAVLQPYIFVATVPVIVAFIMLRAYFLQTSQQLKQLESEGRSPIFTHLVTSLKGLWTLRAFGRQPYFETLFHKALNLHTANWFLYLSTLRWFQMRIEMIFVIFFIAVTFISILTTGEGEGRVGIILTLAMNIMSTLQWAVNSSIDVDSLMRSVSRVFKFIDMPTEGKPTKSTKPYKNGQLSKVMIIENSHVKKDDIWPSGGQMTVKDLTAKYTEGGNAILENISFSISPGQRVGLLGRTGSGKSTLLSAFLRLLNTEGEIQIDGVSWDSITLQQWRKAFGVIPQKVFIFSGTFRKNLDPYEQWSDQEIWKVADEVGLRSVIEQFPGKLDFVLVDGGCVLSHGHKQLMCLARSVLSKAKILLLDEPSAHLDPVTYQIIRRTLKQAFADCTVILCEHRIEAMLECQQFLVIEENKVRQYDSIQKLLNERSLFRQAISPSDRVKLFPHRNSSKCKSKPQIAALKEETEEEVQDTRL

SMILES | EC50 [µM]
C[C@@H]1CCCN1c1ccc(NC(=O)c2c[nH]c3ccccc3c2=O)c(C(F)(F)F)c1 [Compound 572, (R)-N-(4-(2-methylpyrrolidin-1-yl)-2-(trifluoromethyl)phenyl)-4-oxo-1,4-dihydroquinoline-3-carboxamide] | < 10
CC(C)c1ccc(NC(=O)c2c[nH]c3ccc(F)cc3c2=O)cc1O [Compound 597, 6-fluoro-N-(3-hydroxy-4-isopropyl-phenyl)-4-oxo-1H-quinoline-3-carboxamide] | < 10

same assay, conditions: Table 3; assay not given; read-out: % Activity (% Efficacy, relative efficacy)

SMILES | Emax [%]
Cc1cccc2[nH]cc(C(=O)Nc3cc4[nH]ccc4cc3C(C)(C)C)c(=O)c12 [Compound 565, 5-methyl-4-oxo-N-(5-tert-butyl-1H-indol-6-yl)-1H-quinoline-3-carboxamide] | 25 to 100
COCCn1ccc2cc(C(F)(F)F)c(NC(=O)c3c[nH]c4ccc(F)cc4c3=O)cc21 [Compound 566, 6-fluoro-N-[1-(2-methoxyethyl)-5-(trifluoromethyl)indol-6-yl]-4-oxo-1H-quinoline-3-carboxamide] | 25 to 100
O=C(Nc1ccc(N2CCC[C@H]2C(=O)O)cc1C(F)(F)F)c1c[nH]c2ccccc2c1=O [Compound 567, (S)-1-[4-[(4-oxo-1H-quinolin-3-yl)carbonylamino]-3-(trifluoromethyl)phenyl]pyrrolidine-2-carboxylic acid] | 25 to 100
Cc1ccc2[nH]cc(C(=O)Nc3ccc(N4[C@H](C)CC[C@H]4C)cc3C(F)(F)F)c(=O)c2c1 [Compound 569, N-(4-((2R,5R)-2,5-dimethylpyrrolidin-1-yl)-2-(trifluoromethyl)phenyl)-6-methyl-4-oxo-1,4-dihydroquinoline-3-carboxamide] | 25 to 100
CC(C)c1cc(C(F)(F)F)c(NC(=O)c2c[nH]c3ccccc3c2=O)cc1OCc1ccccc1 [Compound 570, N-[5-benzyloxy-4-isopropyl-2-(trifluoromethyl)phenyl]-4-oxo-1H-quinoline-3-carboxamide] | 25 to 100
COc1nc(NC(=O)c2c[nH]c3ccccc3c2=O)ccc1C(F)(F)F [Compound 571, N-[6-methoxy-5-(trifluoromethyl)-2-pyridyl]-4-oxo-1H-quinoline-3-carboxamide] | < 25
C[C@@H]1CCCN1c1ccc(NC(=O)c2c[nH]c3ccccc3c2=O)c(C(F)(F)F)c1 [Compound 572, (R)-N-(4-(2-methylpyrrolidin-1-yl)-2-(trifluoromethyl)phenyl)-4-oxo-1,4-dihydroquinoline-3-carboxamide] | 25 to 100
CC(C)c1ccc(NC(=O)c2c[nH]c3c(F)cccc3c2=O)c(C(F)(F)F)c1 [Compound 573, 8-fluoro-N-[4-isopropyl-2-(trifluoromethyl)phenyl]-4-oxo-1H-quinoline-3-carboxamide] | 25 to 100
O=C(Nc1cc(O)cc(C(F)(F)F)c1)c1c[nH]c2ccc(F)cc2c1=O [Compound 574, 6-fluoro-N-[3-hydroxy-5-(trifluoromethyl)phenyl]-4-oxo-1H-quinoline-3-carboxamide] | 25 to 100
CC(C)c1ccc(NC(=O)c2c[nH]c3ccccc3c2=O)cc1O [Compound 575, N-(3-hydroxy-4-isopropyl-phenyl)-4-oxo-1H-quinoline-3-carboxamide] | 25 to 100
Cc1ccc2c(=O)c(C(=O)Nc3cc4[nH]ccc4cc3C(F)(F)F)c[nH]c2c1 [Compound 576, 7-methyl-4-oxo-N-[5-(trifluoromethyl)-1H-indol-6-yl]-1H-quinoline-3-carboxamide] | 25 to 100
Cc1ccc(C(F)(F)F)cc1NC(=O)c1c[nH]c2ccccc2c1=O [Compound 577, N-[2-methyl-5-(trifluoromethyl)phenyl]-4-oxo-1H-quinoline-3-carboxamide] | 25 to 100
Cc1cccc2[nH]cc(C(=O)Nc3ccc(N4CCC(C)(C)C4)cc3C(F)(F)F)c(=O)c12 [Compound 578, N-[4-(3,3-dimethylpyrrolidin-1-yl)-2-(trifluoromethyl)phenyl]-5-methyl-4-oxo-1H-quinoline-3-carboxamide] | 25 to 100
O=C(Nc1ccc(OC(F)(F)F)c(N2CCCC2)c1)c1c[nH]c2ccccc2c1=O [Compound 579, 4-oxo-N-[3-pyrrolidin-1-yl-4-(trifluoromethoxy)phenyl]-1H-quinoline-3-carboxamide] | 25 to 100
CC(C)(C)c1cc(C(C)(C)C)c(NC(=O)c2c[nH]c3c(C(F)(F)F)cccc3c2=O)cc1O [Compound 580, N-(5-hydroxy-2,4-ditert-butyl-phenyl)-4-oxo-8-(trifluoromethyl)-1H-quinoline-3-carboxamide] | < 25
Cc1cccc2[nH]cc(C(=O)Nc3ccc(N4CCC[C@@H]4C)nc3C(F)(F)F)c(=O)c12 [Compound 581, (S)-5-methyl-N-(6-(2-methylpyrrolidin-1-yl)-2-(trifluoromethyl)pyridin-3-yl)-4-oxo-1,4-dihydroquinoline-3-carboxamide] | 25 to 100
Cc1cccc2[nH]cc(C(=O)Nc3ccc(N4C[C@@H]5CC[C@H]4C5)cc3C(F)(F)F)c(=O)c12 [Compound 582, N-(4-((1S,4R)-2-azabicyclo[2.2.1]heptan-2-yl)-2-(trifluoromethyl)phenyl)-5-methyl-4-oxo-1,4-dihydroquinoline-3-carboxamide] | 25 to 100
COc1ccc2c(=O)c(C(=O)Nc3cc(O)c(C(C)(C)C)cc3C(C)(C)C)c[nH]c2c1 [Compound 583, N-(5-hydroxy-2,4-ditert-butyl-phenyl)-7-methoxy-4-oxo-1H-quinoline-3-carboxamide] | 25 to 100
COc1ccc2[nH]cc(C(=O)Nc3cc(O)c(C4(C)CCCCC4)cc3F)c(=O)c2c1 [Compound 584, N-[2-fluoro-5-hydroxy-4-(1-methylcyclohexyl)-phenyl]-6-methoxy-4-oxo-1H-quinoline-3-carboxamide] | 25 to 100

SMILES | Emax [%]
CC(C)(C)c1cc(C(C)(C)C)c(NC(=O)c2c[nH]c3cccc(N)c3c2=O)cc1O [Compound 585, 5-amino-N-(5-hydroxy-2,4-ditert-butyl-phenyl)-4-oxo-1H-quinoline-3-carboxamide] | > 100
CC(C)c1ccc(NC(=O)c2c[nH]c3cccc(O)c3c2=O)cc1O [Compound 587, 5-hydroxy-N-(3-hydroxy-4-isopropyl-phenyl)-4-oxo-1H-quinoline-3-carboxamide] | 25 to 100
Cc1cc(C(C)(C)C)c(O)cc1NC(=O)c1c[nH]c2cccc(O)c2c1=O [Compound 588, 5-hydroxy-N-(5-hydroxy-2-methyl-4-tert-butyl-phenyl)-4-oxo-1H-quinoline-3-carboxamide] | 25 to 100
CC(C)c1ccc(NC(=O)c2c[nH]c3cc(F)c(F)cc3c2=O)c(C(F)(F)F)c1 [Compound 589, 6,7-difluoro-N-[4-isopropyl-2-(trifluoromethyl)phenyl]-4-oxo-1H-quinoline-3-carboxamide] | 25 to 100
CC(CO)(CO)c1ccc(NC(=O)c2c[nH]c3ccccc3c2=O)cc1 [Compound 590, N-[4-[2-hydroxy-1-(hydroxymethyl)-1-methyl-ethyl]phenyl]-4-oxo-1H-quinoline-3-carboxamide] | < 25
CCc1cc2cc[nH]c2cc1NC(=O)c1c[nH]c2cccc(O)c2c1=O [Compound 591, N-(5-ethyl-1H-indol-6-yl)-5-hydroxy-4-oxo-1H-quinoline-3-carboxamide] | 25 to 100
Cc1cccc2[nH]cc(C(=O)Nc3ccc(N4[C@H](C)CC[C@@H]4C)cc3C(F)(F)F)c(=O)c12 [Compound 592, N-(4-((2R,5S)-2,5-dimethylpyrrolidin-1-yl)-2-(trifluoromethyl)phenyl)-5-methyl-4-oxo-1,4-dihydroquinoline-3-carboxamide] | 25 to 100
O=C(Nc1cc(N2CCCC2)cc(C(F)(F)F)c1)c1c[nH]c2ccccc2c1=O [Compound 593, 4-oxo-N-[3-pyrrolidin-1-yl-5-(trifluoromethyl)phenyl]-1H-quinoline-3-carboxamide] | 25 to 100
CC(C)(C)c1ccc(NC(=O)c2c[nH]c3ccccc3c2=O)c(C(C)(C)C)c1O [Compound 594, N-(3-hydroxy-2,4-ditert-butyl-phenyl)-4-oxo-1H-quinoline-3-carboxamide] | > 100
Cc1cccc2[nH]cc(C(=O)Nc3ccc(OC4CCCC4)cc3C(F)(F)F)c(=O)c12 [Compound 595, N-[4-cyclopentoxy-2-(trifluoromethyl)phenyl]-5-methyl-4-oxo-1H-quinoline-3-carboxamide] | 25 to 100
O=C(Nc1cc2[nH]ccc2cc1F)c1c[nH]c2cccc(O)c2c1=O [Compound 596, N-(5-fluoro-1H-indol-6-yl)-5-hydroxy-4-oxo-1H-quinoline-3-carboxamide] | 25 to 100
CC(C)c1ccc(NC(=O)c2c[nH]c3ccc(F)cc3c2=O)cc1O [Compound 597, 6-fluoro-N-(3-hydroxy-4-isopropyl-phenyl)-4-oxo-1H-quinoline-3-carboxamide] | 25 to 100
O=C(Nc1ccc(N2CCOCC2)cc1C(F)(F)F)c1c[nH]c2ccccc2c1=O [Compound 598, N-[4-morpholino-2-(trifluoromethyl)phenyl]-4-oxo-1H-quinoline-3-carboxamide] | > 100
O=C(Nc1cc(O)cc(C(F)(F)F)c1)c1c[nH]c2cccc(O)c2c1=O [Compound 599, 5-hydroxy-N-[3-hydroxy-5-(trifluoromethyl)phenyl]-4-oxo-1H-quinoline-3-carboxamide] | 25 to 100
CC(C)(C)OC(=O)Nc1ccc(NC(=O)c2c[nH]c3ccccc3c2=O)c(C(F)(F)F)c1 [Compound 600, tert-butyl [[4-[(4-oxo-1H-quinolin-3-yl)carbonylamino]-3-(trifluoromethyl)phenyl]amino]formate] | 25 to 100
COc1ccc2[nH]cc(C(=O)Nc3ccc(N4CCC[C@@H]4C)cc3C(F)(F)F)c(=O)c2c1 [Compound 601, (S)-6-methoxy-N-(4-(2-methylpyrrolidin-1-yl)-2-(trifluoromethyl)phenyl)-4-oxo-1,4-dihydroquinoline-3-carboxamide] | 25 to 100
CC(C)(C)c1cccc(NC(=O)c2c[nH]c3ccccc3c2=O)c1 [Compound 602, 4-oxo-N-(3-tert-butylphenyl)-1H-quinoline-3-carboxamide] | 25 to 100
CC(=O)c1ccc2c(=O)c(C(=O)Nc3cc(O)c(C(C)(C)C)cc3C(C)(C)C)c[nH]c2c1 [Compound 604, 7-acetyl-N-(5-hydroxy-2,4-ditert-butyl-phenyl)-4-oxo-1H-quinoline-3-carboxamide] | 25 to 100
CCc1cccc2c(=O)c(C(=O)Nc3cc(O)c(C(C)(C)C)cc3F)c[nH]c12 [Compound 605, 8-ethyl-N-(2-fluoro-5-hydroxy-4-tert-butyl-phenyl)-4-oxo-1H-quinoline-3-carboxamide] | < 25
